Tests used:
STAT6 protein = biological target: T1, STAT6 protein (Homo sapiens, UniProt P42226); test: Fluorescence polarization (FP) binding assay, STAT6; settings: FP competition, 5 nM fluorescein-labeled tracer, 200 nM protein, PBS pH7.4; read-out: Binding STAT6
T1 sequence (P42226 1-847): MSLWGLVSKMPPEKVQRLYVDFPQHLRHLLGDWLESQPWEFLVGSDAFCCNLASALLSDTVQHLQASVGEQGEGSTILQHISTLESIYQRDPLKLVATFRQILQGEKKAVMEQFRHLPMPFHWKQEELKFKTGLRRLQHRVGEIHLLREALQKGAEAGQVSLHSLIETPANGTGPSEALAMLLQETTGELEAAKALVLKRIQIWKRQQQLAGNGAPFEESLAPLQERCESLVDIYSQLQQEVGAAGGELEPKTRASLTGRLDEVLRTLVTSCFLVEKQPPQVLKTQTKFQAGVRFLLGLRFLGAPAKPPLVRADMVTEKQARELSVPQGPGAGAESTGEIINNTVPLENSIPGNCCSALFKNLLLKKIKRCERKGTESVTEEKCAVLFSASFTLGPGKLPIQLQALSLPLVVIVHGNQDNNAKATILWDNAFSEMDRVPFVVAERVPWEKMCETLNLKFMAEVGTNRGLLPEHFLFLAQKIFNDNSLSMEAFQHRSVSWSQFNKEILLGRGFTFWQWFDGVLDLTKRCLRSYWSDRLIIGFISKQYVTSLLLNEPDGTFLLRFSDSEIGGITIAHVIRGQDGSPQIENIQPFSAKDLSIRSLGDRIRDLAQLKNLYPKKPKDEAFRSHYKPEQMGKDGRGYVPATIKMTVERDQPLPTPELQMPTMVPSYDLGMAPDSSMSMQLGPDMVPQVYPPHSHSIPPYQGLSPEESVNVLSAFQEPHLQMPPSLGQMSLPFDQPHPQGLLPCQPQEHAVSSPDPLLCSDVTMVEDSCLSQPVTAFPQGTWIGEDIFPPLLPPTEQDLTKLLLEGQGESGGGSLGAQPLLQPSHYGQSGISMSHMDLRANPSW
How it was run: (§1)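 Tracer (fluorescein-labeled, 5 nM) was mixed with 200 nM STAT5 and/or STAT6 in PBS pH 7.4 plus 0.01% BGG, 0.01% Tween-20, 2 mM DTT. After 15 min shaking and 1 h at room temperature to equilibrium, polarization was measured and constants derived by nonlinear fitting.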

STAT5A = biological target: T2, STAT5A (Homo sapiens, UniProt P42229); test: Fluorescence polarization (FP) binding assay, STAT5A; settings: FP competition, 5 nM fluorescein-labeled tracer, 200 nM protein, PBS pH7.4
T2 sequence (P42229 1-794): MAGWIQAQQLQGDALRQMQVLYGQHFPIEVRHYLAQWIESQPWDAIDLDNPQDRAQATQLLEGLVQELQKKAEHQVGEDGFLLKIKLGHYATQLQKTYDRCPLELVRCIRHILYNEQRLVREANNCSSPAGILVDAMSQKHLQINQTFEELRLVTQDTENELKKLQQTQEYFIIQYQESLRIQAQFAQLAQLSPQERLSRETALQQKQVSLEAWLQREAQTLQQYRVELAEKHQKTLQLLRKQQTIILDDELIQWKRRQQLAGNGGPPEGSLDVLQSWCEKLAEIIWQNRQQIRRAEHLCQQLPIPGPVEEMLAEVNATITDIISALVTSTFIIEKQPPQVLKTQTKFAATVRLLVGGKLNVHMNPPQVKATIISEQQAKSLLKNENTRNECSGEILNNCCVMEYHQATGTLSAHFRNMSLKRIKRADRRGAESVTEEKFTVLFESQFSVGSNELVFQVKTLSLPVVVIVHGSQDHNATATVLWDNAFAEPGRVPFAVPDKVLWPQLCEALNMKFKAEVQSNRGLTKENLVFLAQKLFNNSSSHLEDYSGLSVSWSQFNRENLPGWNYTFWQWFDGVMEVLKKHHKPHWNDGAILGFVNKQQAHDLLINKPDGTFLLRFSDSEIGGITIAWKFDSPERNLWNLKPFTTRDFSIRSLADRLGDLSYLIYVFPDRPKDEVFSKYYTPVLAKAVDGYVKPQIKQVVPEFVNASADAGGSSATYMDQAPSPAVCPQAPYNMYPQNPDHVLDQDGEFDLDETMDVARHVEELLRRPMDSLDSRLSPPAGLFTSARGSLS
How it was run: as §1

| SMILES | Ki (STAT6 protein) [µM] | Ki (STAT5A) [µM] |
| --- | --- | --- |
| CC(C)(C)[C@H](NC(=O)c1cc2cc(C(F)(F)P(=O)(O)O)ccc2s1)C(=O)N1CCC[C@H]1C(=O)N(Cc1ccccc1)C1CCCCC1 [Compound 75, ((2-(((S)-1-((S)-2-(benzyl(cyclohexyl)carbamoyl)pyrrolidin-1-yl)-3,3-dimethyl-1-oxobutan-2-yl)carbamoyl)benzo[b]thiophen-5-yl)difluoromethyl)phosphonic acid] | 1 to 10 | > 10 |
| CC(C)(C)[C@H](NC(=O)c1cc2cc(C(F)(F)P(=O)(O)O)ccc2s1)C(=O)N1CCC[C@H]1C(=O)N(Cc1ccccc1)C1CCOCC1 [Compound 76, ((2-(((S)-1-((S)-2-(benzyl(tetrahydro-2H-pyran-4-yl)carbamoyl)pyrrolidin-1-yl)-3,3-dimethyl-1-oxobutan-2-yl)carbamoyl)benzo[b]thiophen-5-yl)difluoromethyl)phosphonic acid] | 1 to 10 | > 10 |
| CC(C)(C)[C@H](NC(=O)c1cc2cc(C(F)(F)P(=O)(O)O)ccc2s1)C(=O)N1CCC[C@H]1C(=O)N1CC[C@H]2CCN[C@H]2C1 [Compound 78, ((2-(((S)-3,3-dimethyl-1-((S)-2-((3aR,7aR)-octahydro-1H-pyrrolo[2,3-c]pyridine-6-carbonyl)pyrrolidin-1-yl)-1-oxobutan-2-yl)carbamoyl)benzo[b]thiophen-5-yl)difluoromethyl)phosphonic acid] | > 10 | > 10 |
| CC(C)(C)[C@H](NC(=O)c1cc2cc(C(F)(F)P(=O)(O)O)ccc2s1)C(=O)N1CCC[C@H]1C(=O)N1CC[C@@H]2CNC[C@@H]21 [Compound 79, ((2-(((S)-3,3-dimethyl-1-((S)-2-((3aR,6aR)-octahydropyrrolo[3,4-b]pyrrole-1-carbonyl)pyrrolidin-1-yl)-1-oxobutan-2-yl)carbamoyl)benzo[b]thiophen-5-yl)difluoromethyl)phosphonic acid] | > 10 | > 10 |
| CC(C)(C)[C@H](NC(=O)c1cc2cc(C(F)(F)P(=O)(O)O)ccc2s1)C(=O)N1CCC[C@H]1C(=O)N1C[C@H]2CCN[C@H]2C1 [Compound 80, ((2-(((S)-3,3-dimethyl-1-((S)-2-((3aR,6aR)-octahydropyrrolo[3,4-b]pyrrole-5-carbonyl)pyrrolidin-1-yl)-1-oxobutan-2-yl)carbamoyl)benzo[b]thiophen-5-yl)difluoromethyl)phosphonic acid] | > 10 | > 10 |
| CC(=O)N1CC[C@@H]2CCN(C(=O)[C@@H]3CCCN3C(=O)[C@@H](NC(=O)c3cc4cc(C(F)(F)P(=O)(O)O)ccc4s3)C(C)(C)C)C[C@@H]21 [Compound 81, ((2-(((S)-1-((S)-2-((3aS,7aR)-1-acetyloctahydro-1H-pyrrolo[2,3-c]pyridine-6-carbonyl)pyrrolidin-1-yl)-3,3-dimethyl-1-oxobutan-2-yl)carbamoyl)benzo[b]thiophen-5-yl)difluoromethyl)phosphonic acid] | > 10 | > 10 |
| CCCCC(=O)N1CC[C@@H]2CCN(C(=O)[C@@H]3CCCN3C(=O)[C@@H](NC(=O)c3cc4cc(C(F)(F)P(=O)(O)O)ccc4s3)C(C)(C)C)C[C@@H]21 [Compound 82, ((2-(((S)-3,3-dimethyl-1-oxo-1-((S)-2-((3aS,7aR)-1-pentanoyloctahydro-1H-pyrrolo[2,3-c]pyridine-6-carbonyl)pyrrolidin-1-yl)butan-2-yl)carbamoyl)benzo[b]thiophen-5-yl)difluoromethyl)phosphonic acid] | > 10 | > 10 |
| CC(C)(C)[C@H](NC(=O)c1cc2cc(C(F)(F)P(=O)(O)O)ccc2s1)C(=O)N1CCC[C@H]1C(=O)N1CC[C@H]2CCN(C(=O)c3ccc(F)cc3)[C@H]2C1 [Compound 83, (difluoro(2-(((S)-1-((S)-2-((3aS,7aR)-1-(4-fluorobenzoyl)octahydro-1H-pyrrolo[2,3-c]pyridine-6-carbonyl)pyrrolidin-1-yl)-3,3-dimethyl-1-oxobutan-2-yl)carbamoyl)benzo[b]thiophen-5-yl)methyl)phosphonic acid] | > 10 | > 10 |
| CC(=O)N1C[C@H]2CCN(C(=O)[C@@H]3CCCN3C(=O)[C@@H](NC(=O)c3cc4cc(C(F)(F)P(=O)(O)O)ccc4s3)C(C)(C)C)[C@H]2C1 [Compound 84, ((2-(((S)-1-((S)-2-((3aR,6aR)-5-acetyloctahydropyrrolo[3,4-b]pyrrole-1-carbonyl)pyrrolidin-1-yl)-3,3-dimethyl-1-oxobutan-2-yl)carbamoyl)benzo[b]thiophen-5-yl)difluoromethyl)phosphonic acid] | > 10 | > 10 |
| CCCCC(=O)N1C[C@H]2CCN(C(=O)[C@@H]3CCCN3C(=O)[C@@H](NC(=O)c3cc4cc(C(F)(F)P(=O)(O)O)ccc4s3)C(C)(C)C)[C@H]2C1 [Compound 85, ((2-(((S)-3,3-dimethyl-1-oxo-1-((S)-2-((3aR,6aR)-5-pentanoyloctahydropyrrolo[3,4-b]pyrrole-1-carbonyl)pyrrolidin-1-yl)butan-2-yl)carbamoyl)benzo[b]thiophen-5-yl)difluoromethyl)phosphonic acid] | > 10 | > 10 |
| CC(C)(C)[C@H](NC(=O)c1cc2cc(C(F)(F)P(=O)(O)O)ccc2s1)C(=O)N1CCC[C@H]1C(=O)N1CC[C@@H]2CN(C(=O)c3ccc(F)cc3)C[C@@H]21 [Compound 86, (difluoro(2-(((S)-1-((S)-2-((3aR,6aR)-5-(4-fluorobenzoyl)octahydropyrrolo[3,4-b]pyrrole-1-carbonyl)pyrrolidin-1-yl)-3,3-dimethyl-1-oxobutan-2-yl)carbamoyl)benzo[b]thiophen-5-yl)methyl)phosphonic acid] | > 10 | > 10 |
| CC(=O)N1CC[C@@H]2CN(C(=O)[C@@H]3CCCN3C(=O)[C@@H](NC(=O)c3cc4cc(C(F)(F)P(=O)(O)O)ccc4s3)C(C)(C)C)C[C@@H]21 [Compound 87, ((2-(((S)-1-((S)-2-((3aR,6aR)-1-acetyloctahydropyrrolo[3,4-b]pyrrole-5-carbonyl)pyrrolidin-1-yl)-3,3-dimethyl-1-oxobutan-2-yl)carbamoyl)benzo[b]thiophen-5-yl)difluoromethyl)phosphonic acid] | > 10 | > 10 |
| CCCCC(=O)N1CC[C@@H]2CN(C(=O)[C@@H]3CCCN3C(=O)[C@@H](NC(=O)c3cc4cc(C(F)(F)P(=O)(O)O)ccc4s3)C(C)(C)C)C[C@@H]21 [Compound 88, ((2-(((S)-3,3-dimethyl-1-oxo-1-((S)-2-((3aR,6aR)-1-pentanoyloctahydropyrrolo[3,4-b]pyrrole-5-carbonyl)pyrrolidin-1-yl)butan-2-yl)carbamoyl)benzo[b]thiophen-5-yl)difluoromethyl)phosphonic acid] | > 10 | > 10 |
| CC(C)(C)[C@H](NC(=O)c1cc2cc(C(F)(F)P(=O)(O)O)ccc2s1)C(=O)N1CCC[C@H]1C(=O)N1C[C@H]2CCN(C(=O)c3ccc(F)cc3)[C@H]2C1 [Compound 89, (difluoro(2-(((S)-1-((S)-2-((3aR,6aR)-1-(4-fluorobenzoyl)octahydropyrrolo[3,4-b]pyrrole-5-carbonyl)pyrrolidin-1-yl)-3,3-dimethyl-1-oxobutan-2-yl)carbamoyl)benzo[b]thiophen-5-yl)methyl)phosphonic acid] | > 10 | > 10 |
